IC50 data for eleven compounds are collected here from US10722501B2 (BAYER AKTIENGESELLSCHAFT, priority 2016, dated 2020).

The assay has as its target T1, recombinant full-length human prolyl endopeptidase (PREP) (Homo sapiens, UniProt P48147).
T1 construct: To recombinant full-length human prolyl endopeptidase (PREP, R&D-Systems, 4308-SE); purchased R&D-Systems 4308-SE
T1 sequence (P48147 1-710): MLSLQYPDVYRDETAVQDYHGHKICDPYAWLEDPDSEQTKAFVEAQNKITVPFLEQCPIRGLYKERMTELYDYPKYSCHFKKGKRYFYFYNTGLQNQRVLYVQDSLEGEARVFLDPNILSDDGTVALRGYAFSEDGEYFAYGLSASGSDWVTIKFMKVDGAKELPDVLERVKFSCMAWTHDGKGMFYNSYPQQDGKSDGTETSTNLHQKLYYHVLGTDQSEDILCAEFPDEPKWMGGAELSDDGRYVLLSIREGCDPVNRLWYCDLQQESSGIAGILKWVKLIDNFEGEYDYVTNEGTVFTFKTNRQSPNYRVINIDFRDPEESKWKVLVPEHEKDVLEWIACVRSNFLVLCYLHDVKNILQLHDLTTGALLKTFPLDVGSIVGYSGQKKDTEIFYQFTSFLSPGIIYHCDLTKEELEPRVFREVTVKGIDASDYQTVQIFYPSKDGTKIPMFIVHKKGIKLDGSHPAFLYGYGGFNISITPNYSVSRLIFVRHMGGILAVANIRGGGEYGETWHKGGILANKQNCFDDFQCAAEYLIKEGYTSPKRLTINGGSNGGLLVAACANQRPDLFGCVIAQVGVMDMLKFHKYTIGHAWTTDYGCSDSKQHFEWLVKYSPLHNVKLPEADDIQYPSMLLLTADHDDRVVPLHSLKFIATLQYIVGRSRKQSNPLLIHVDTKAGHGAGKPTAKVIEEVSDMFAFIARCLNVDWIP
The assay can be described thus: Biochemical human prolyl endopeptidase (PREP) assay with fluorescently labelled substrate. Conditions: substrate Z-Gly-Pro-AMC 50 μM, 32° C., 60 min; some as mean values from multiple independent determinations. The essentials:
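0.4 nM (final, example) recombinant PREP in pH 7.5 Tris buffer with EDTA, GSH, BSA and Brij-35; compounds at 1 nM to 30 μM. Reaction started with 50 μM Z-Gly-Pro-AMC and followed by fluorescence (ex 360/em 465 nm) at 32° C for 60 min. IC50 interpolated from percent activity based on initial slopes.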
In the case of `COc1ncc(Cn2nc3n(c2=O)[C@H](C(=O)N2C[C@@H](F)[C@@H](F)C2)CCC3)cc1Cl` [Example 442, (5S)-2-[(5-Chloro-6-methoxypyridin-3-yl)methyl]-5-{[(3R,4S)-3,4-difluoropyrrolidin-1-yl]carbonyl}-5,6,7,8-tetrahydro[1,2,4]triazolo[4,3-a]pyridin-3(2H)-one], the IC50 turned out to be 1 nM. With `COc1ncc(Cn2nc3n(c2=O)[C@H](C(=O)N2CCC(F)(F)C2)CCC3)cc1Cl` [Example 443, (5S)-2-[(5-Chloro-6-methoxypyridin-3-yl)methyl]-5-[(3,3-difluoropyrrolidin-1-yl)carbonyl]-5,6,7,8-tetrahydro[1,2,4]triazolo[4,3-a]pyridin-3(2H)-one], the IC50 was determined as 0.61 nM.

On to `O=C([C@@H]1CCCc2nn(Cc3cccc(C(F)(F)F)c3)c(=O)n21)N1CC[C@H](F)C1` [Example 444, (5S)-5-{[(3S)-3-Fluoropyrrolidin-1-yl]carbonyl}-2-[3-(trifluoromethyl)benzyl]-5,6,7,8-tetrahydro[1,2,4]triazolo[4,3-a]pyridin-3(2H)-one], for which the IC50 was 0.19 nM. For `O=C([C@@H]1CCCc2nn(Cc3cccc(C(F)(F)F)c3)c(=O)n21)N1C[C@@H](F)[C@@H](F)C1` [Example 445, (5S)-5-{[(3R,4S)-3,4-Difluoropyrrolidin-1-yl]carbonyl}-2-[3-(trifluoromethyl)benzyl]-5,6,7,8-tetrahydro[1,2,4]triazolo[4,3-a]pyridin-3(2H)-one] the value was 0.76 nM; for `O=C([C@@H]1CCCc2nn(Cc3cccc(C(F)(F)F)c3)c(=O)n21)N1CCC(F)(F)C1` [Example 446, (5S)-5-[(3,3-Difluoropyrrolidin-1-yl)carbonyl]-2-[3-(trifluoromethyl)benzyl]-5,6,7,8-tetrahydro[1,2,4]triazolo[4,3-a]pyridin-3(2H)-one], 0.73 nM; for `O=C([C@@H]1CCCc2nn(Cc3cccc(C(F)(F)F)c3)c(=O)n21)N1CC(F)C1` [Example 447, (5S)-5-[(3-Fluoroazetidin-1-yl)carbonyl]-2-[3-(trifluoromethyl)benzyl]-5,6,7,8-tetrahydro[1,2,4]triazolo[4,3-a]pyridin-3(2H)-one], 1.4 nM. For `O=C([C@@H]1CCCc2nn(Cc3ccc(F)c(C(F)(F)F)c3)c(=O)n21)N1CC[C@H](F)C1` [Example 448, (5S)-5-{[(3S)-3-Fluoropyrrolidin-1-yl]carbonyl}-2-[4-fluoro-3-(trifluoromethyl)benzyl]-5,6,7,8-tetrahydro[1,2,4]triazolo[4,3-a]pyridin-3(2H)-one], the IC50 was 0.615 nM. The value for `O=C([C@@H]1CCCc2nn(Cc3ccc(F)c(C(F)(F)F)c3)c(=O)n21)N1CC(O)C1` [Example 449, (5S)-2-[4-Fluoro-3-(trifluoromethyl)benzyl]-5-[(3-hydroxyazetidin-1-yl)carbonyl]-5,6,7,8-tetrahydro[1,2,4]triazolo[4,3-a]pyridin-3(2H)-one] was 5.55 nM; that for `O=C([C@@H]1CCCc2nn(Cc3ccnc(C(F)(F)F)c3)c(=O)n21)N1CC[C@H](F)C1` [Example 450, (5S)-5-{[(3S)-3-Fluoropyrrolidin-1-yl]carbonyl}-2-{[2-(trifluoromethyl)pyridin-4-yl]methyl}-5,6,7,8-tetrahydro[1,2,4]triazolo[4,3-a]pyridin-3(2H)-one] was 1.1 nM; that for `O=C([C@@H]1CCCc2nn(Cc3ccc(F)cc3)c(=O)n21)N1CCC(F)(F)C1` [Example 451, (5S)-5-[(3,3-Difluoropyrrolidin-1-yl)carbonyl]-2-(4-fluorobenzyl)-5,6,7,8-tetrahydro[1,2,4]triazolo[4,3-a]pyridin-3(2H)-one] was 1.1 nM. The value for `O=C([C@@H]1CCCc2nn(Cc3ccc(F)cc3)c(=O)n21)N1C[C@@H](F)[C@@H](F)C1` [Example 452, (5S)-5-{[(3R,4S)-3,4-Difluoropyrrolidin-1-yl]carbonyl}-2-(4-fluorobenzyl)-5,6,7,8-tetrahydro[1,2,4]triazolo[4,3-a]pyridin-3(2H)-one] was 1.3 nM.
